From patent US10512607B2, “Polymeric particles, method for cytosolic delivery of cargo, methods of making the particles” (University of Florida Research Foundation, Inc., priority 2015, dated 2019)

What was measured:
[1] = tested on: dendritic cells (DCs); test: Calcein release from endosomal vesicles in dendritic cells; format: cell-based, mouse; conditions: 2 h at 37° C.
Procedure: DCs were isolated from mouse bone marrow tissues as previously described in Lewis et al. according to the guidelines set forth by the University of Florida Institutional Animal Care and Use Committee.
DCs were plated in 35 mm glass bottom culture dishes at a density of 5×10^4 cells in DC culture medium [DMEM:F12 1:1 (GE Healthcare Life Sciences), 10% fetal bovine serum, 1 mM sodium pyruvate, nonessential amino acids, penicillin-streptomycin, and 20 ng/mL GM-CSF (R&D systems)]. […] As a positive control, a portion of DCs were treated with the membrane permeable Acetoxymethyl ester of calcein (5 μM). Following treatment, cells were washed four times with phosphate buffered saline. New culture medium was added and the cells were imaged with a fluorescent microscope (Axiovert 200M microscope (Carl Zeiss, Oberkochen, Germany) using excitation/emission wavelengths of 495/515 nm at 200-fold magnification.
Images were analyzed by measuring the area of fluorescence per channel (green vs bright field). The values are reported as % relative fluorescence intensity per cell (RFI/cell).

[2] = tested on: Chinese hamster ovary (CHO-K1) cells; test: CytoTox96 LDH cytotoxicity assay; format: cell-based; conditions: positive control for toxicity
Procedure: Chinese hamster ovary (CHO-K1) cells were grown in Ham's F12 medium (Mediatech) containing 10% fetal bovine serum (FBS, Hyclone), penicillin (100 units/mL), and streptomycin (100 μg/mL) at 37° C. in a humidified incubator with 5% CO2 [30]. Cell viability was determined via Trypan blue exclusion and was 97% with each passage.
Toxicity of MPs was determined employing CytoTox96 Non-radioactive Cytotoxity Assay (Promega). CHO cells were plated at a density of 10,000 cells per well in a 96 well tissue culture plate in 200 μL of cell culture medium. Cells were maintained at 37° C. in a humidified incubator in a 5% CO2 atmosphere. MPs were added at a ratio of 5, 10, 20, 30, 40, and 50 particles/cell and incubated at 37° C. for 24 h. The culture medium was transferred into wells of a clear bottom 96 well plate. Cells treated with 0.1% Triton X-100 were used as a positive control for 100% toxicity and cell culture medium alone was used for background subtraction for baseline lactate dehydrogenase (LDH) activity (background control). The cell supernatants were incubated with the developing reagents for 30 min per the manufacturer's instructions. The optical density of the developed color was determined by measuring absorbance at 490 nm. […]

Molecule	cytosolic distribution of calcein (fluorescent area over cell area) [1]	LDH release relative to basal background LDH activity in media without cells [2] [fold]
O=C(O)CN(CC(=O)O)Cc1cc2c(cc1O)Oc1cc(O)c(CN(CC(=O)O)CC(=O)O)cc1C21OC(=O)c2ccccc21 [calcein alone]	less than 10%	–
Acetoxymethyl ester of calcein [calcein AM]	~95%	–
Triton X-100	–	21
